Reference: PMC10339607, “Screening and identification of emodin as an EBV DNase inhibitor to prevent its biological functions” (Virology Journal, 2023)
pIC50: −log10 of the molar value.

These molecules were tested against T1, EBV DNase (BGLF5) (Epstein-barr virus strain ag876, UniProt Q1HVE7) (assay: PicoGreen fluorescence nuclease activity assay).
T1 construct: full-length wild-type, 470 amino acids; pET-15b His-tag; E. coli BL21(DE3) pLysS
T1 sequence (Q1HVE7 whole entry): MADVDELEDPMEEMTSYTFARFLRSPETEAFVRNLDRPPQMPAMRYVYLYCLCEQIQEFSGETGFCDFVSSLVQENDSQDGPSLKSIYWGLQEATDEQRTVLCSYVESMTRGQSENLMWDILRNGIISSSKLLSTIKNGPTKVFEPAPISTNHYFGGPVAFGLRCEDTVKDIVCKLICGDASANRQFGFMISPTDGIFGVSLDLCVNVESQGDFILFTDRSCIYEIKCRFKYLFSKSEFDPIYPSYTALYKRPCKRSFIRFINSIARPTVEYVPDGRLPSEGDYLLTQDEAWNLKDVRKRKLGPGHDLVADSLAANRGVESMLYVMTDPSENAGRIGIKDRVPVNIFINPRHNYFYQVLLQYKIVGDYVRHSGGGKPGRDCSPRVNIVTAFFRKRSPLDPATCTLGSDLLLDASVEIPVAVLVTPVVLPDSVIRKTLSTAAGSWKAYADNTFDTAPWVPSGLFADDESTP
Assay type: biochemical
O=C(O[C@@H]1Cc2c(O)cc(O)cc2O[C@@H]1c1cc(O)c(O)c(O)c1)c1cc(O)c(O)c(O)c1 [epigallocatechin gallate] was tested, and the pIC50 was 4.05.
With C=CCSSCC=C [diallyl disulfide] the pIC50 was < 4.00.
In the case of C[S@@+]([O-])CCCCN=C=S [sulforaphane], the pIC50 was < 4.00.
O=c1c(O)c(-c2ccc(O)cc2)oc2cc(O)cc(O)c12 [Kaempferol] gave a pIC50 of 4.16.
With Cc1cc(O)c2c(c1)C(=O)c1cc(O)cc(O)c1C2=O [emodin] the pIC50 was 4.51.
